Among the data in PubChem BioAssay (NCI) are GI50 and TGI values, retold here.

Values joined by “and” are separate entries in the source; they are usually repeats but may differ in a detail not shown here. Identical values can stand only once.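 Cultured in 96-well plates, cells were exposed to test compound for 48 hours across five concentrations. GI50 = concentration required for 50% inhibition of growth. Definition used: TGI = concentration required for complete inhibition of growth.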

Among the test systems are 786-0 renal; A549 NSCLC; HOP-92 NSCLC; K-562 leukemia; M14 melanoma; MDA-MB-435; NCI-H460 lung; OVCAR-4 ovarian; SR leukemia; UACC-257 melanoma.
Common to all, as to test: inhibition of tumour cell growth, NCI panel, 48 h

As for `Cc1nc(N2CCC3(CC2)CO[C@@H](C)[C@H]3N)c(CO)nc1Sc1ccnc(N)c1Cl`, the GI50 is 12.8 µM in the assay on 786-0 renal; more than 100 µM with A549 NSCLC; 0.184 µM in the assay with HOP-92 NSCLC; 0.305 µM in the assay with K-562 leukemia; more than 100 µM in the assay on M14 melanoma; more than 100 µM in the assay on MDA-MB-435. The GI50 in the assay on NCI-H460 lung was more than 100 µM; in the assay with OVCAR-4 ovarian, 22.4 µM; with SR leukemia it was 11.9 µM; with UACC-257 melanoma it was more than 90.4 µM. Moreover, the TGI in the assay with 786-0 renal is more than 100 µM; in the assay with A549 NSCLC, more than 100 µM; in the assay on HOP-92 NSCLC it was 2.12 µM; in the assay on K-562 leukemia, more than 100 µM; in the assay with M14 melanoma, more than 100 µM; in the assay with MDA-MB-435, more than 100 µM. In addition, the TGI in the assay with NCI-H460 lung, with OVCAR-4 ovarian, with SR leukemia and in the assay with UACC-257 melanoma was more than 100 µM in each case.

In the case of `Cc1cc(C)c(NC(=S)NC(=O)c2ccccc2)cc1C`, the TGI in the assay with 786-0 renal, in the assay with A549 NSCLC, in the assay with HOP-92 NSCLC, with K-562 leukemia, with M14 melanoma and in the assay on MDA-MB-435 was more than 100 µM throughout. For the same compound, the TGI in the assay on NCI-H460 lung, in the assay with OVCAR-4 ovarian, in the assay on SR leukemia and with UACC-257 melanoma was more than 100 µM each time.

Regarding `O=C(/C=C/c1ccccc1)n1c(-c2ccc(Cl)cc2)nc2ccccc21`, the GI50 is 2.05 µM with 786-0 renal; 1.89 µM in the assay with A549 NSCLC; 1.46 µM in the assay on HOP-92 NSCLC; 2.09 µM in the assay with K-562 leukemia; 1.91 µM with M14 melanoma; 1.11 µM in the assay on MDA-MB-435. For the same compound, the GI50 with NCI-H460 lung was 1.53 µM; in the assay on OVCAR-4 ovarian, 3.01 µM; in the assay on SR leukemia, 0.379 µM; in the assay with UACC-257 melanoma, 1.47 µM. The TGI in the assay with 786-0 renal came out at 7.63 µM; in the assay with A549 NSCLC, 7.3 µM; in the assay on HOP-92 NSCLC it was 3.82 µM; in the assay with K-562 leukemia it was 11.8 µM; in the assay on M14 melanoma it was 5.05 µM; in the assay on MDA-MB-435, 3.04 µM. Also, the TGI is 3.5 µM in the assay on NCI-H460 lung, 16.7 µM in the assay on OVCAR-4 ovarian, 1.88 µM with SR leukemia and 3.42 µM in the assay with UACC-257 melanoma.

On to `Cc1ccc(C)c(C2NC(=O)c3ccccc3N2)c1` (centres undefined), for which the TGI was more than 64 µM in the assay on 786-0 renal; more than 100 µM with A549 NSCLC; more than 100 µM in the assay with HOP-92 NSCLC; more than 30.1 µM with K-562 leukemia; 26.1 µM in the assay on M14 melanoma; 0.832 µM in the assay on MDA-MB-435. The TGI with NCI-H460 lung is 34.5 µM; in the assay on OVCAR-4 ovarian, more than 100 µM; with SR leukemia, more than 27.4 µM; with UACC-257 melanoma, more than 100 µM.

Take `Cc1sc2c(c1C)C(c1ccc(Cl)cc1)=N[C@@H](CC(=O)OC(C)(C)C)c1nnc(C)n1-2`: the GI50 was 0.605 µM and 0.841 µM with 786-0 renal; 0.73 µM and 0.312 µM in the assay on A549 NSCLC; 0.0319 µM and 0.0183 µM with HOP-92 NSCLC; 0.436 µM and 0.772 µM with M14 melanoma; 0.348 µM and 0.135 µM in the assay with MDA-MB-435; 1.55 µM and 0.603 µM with NCI-H460 lung. In addition, the GI50 in the assay on OVCAR-4 ovarian was 0.123 µM and 0.15 µM; in the assay with SR leukemia, 0.229 µM and 0.0451 µM; with UACC-257 melanoma it was 0.313 µM and 0.146 µM. The TGI was 19.9 µM and 18.9 µM in the assay with 786-0 renal; 21.8 µM and 15.3 µM in the assay on A549 NSCLC; 0.39 µM and 0.29 µM in the assay on HOP-92 NSCLC; 37.5 µM and 15.7 µM in the assay on K-562 leukemia; 19.6 µM and 21.7 µM in the assay with M14 melanoma; 20.3 µM and 17 µM with MDA-MB-435. The TGI was 22.6 µM and 19 µM in the assay with NCI-H460 lung; 17.2 µM and 16.1 µM in the assay with OVCAR-4 ovarian; 18.7 µM and 17.1 µM in the assay with SR leukemia; 19.5 µM and 17 µM with UACC-257 melanoma.

Consider `CCCC(CCC)C(=O)OCC1(CO)C/C(=C\c2ccc(F)cc2)C(=O)O1` (centres undefined), for which the GI50 was 10.5 µM with 786-0 renal; 3.66 µM in the assay on A549 NSCLC; 0.487 µM in the assay with HOP-92 NSCLC; 0.374 µM in the assay on K-562 leukemia; 8.45 µM in the assay on M14 melanoma; 2.43 µM in the assay on MDA-MB-435. Also, the GI50 was 1.94 µM in the assay on NCI-H460 lung, 13.9 µM with OVCAR-4 ovarian, 6.55 µM in the assay on SR leukemia and 14.7 µM in the assay with UACC-257 melanoma. Further, the TGI in the assay on 786-0 renal came to 23.8 µM; in the assay with A549 NSCLC it was 21.5 µM; in the assay with HOP-92 NSCLC it was 12.5 µM; with K-562 leukemia, 18 µM; in the assay on M14 melanoma it was 24.8 µM; with MDA-MB-435 it was 20.9 µM. Besides, the TGI worked out at 19.6 µM in the assay with NCI-H460 lung, 28.4 µM with OVCAR-4 ovarian, 25.4 µM with SR leukemia and 28.7 µM in the assay with UACC-257 melanoma.

Take `O=C(O)C(Cl)(c1ccccc1)c1ccccc1`: the TGI in the assay with 786-0 renal, in the assay on A549 NSCLC, in the assay on HOP-92 NSCLC, in the assay with K-562 leukemia, in the assay on M14 melanoma and with MDA-MB-435 was more than 100 µM throughout. Further, the TGI with NCI-H460 lung, in the assay on OVCAR-4 ovarian, with SR leukemia and in the assay with UACC-257 melanoma was more than 100 µM in each case.

Regarding `CCCCCCCCCCCCCCCCCC(=O)OCC(COC(=O)CCCN)OC(=O)CCCN` (centres undefined), the TGI with 786-0 renal was 34.3 µM; in the assay on A549 NSCLC, 16.4 µM; in the assay with HOP-92 NSCLC it was 26.6 µM; in the assay on K-562 leukemia, more than 100 µM; in the assay on M14 melanoma it was 31.4 µM; in the assay on MDA-MB-435, 33.2 µM. Besides, the TGI with NCI-H460 lung was 30.7 µM; in the assay with OVCAR-4 ovarian, 40.9 µM; in the assay with SR leukemia, more than 100 µM; in the assay with UACC-257 melanoma, 34.4 µM.

As for `CCn1c(-c2cc3ccccc3cc2O)nn(C(=O)c2c(Cl)cccc2Cl)c1=S`, the GI50 in the assay on 786-0 renal was 10.8 µM; in the assay with A549 NSCLC it was more than 50 µM; in the assay with HOP-92 NSCLC it was more than 50 µM; in the assay on K-562 leukemia, 14.3 µM; with M14 melanoma, 7.11 µM; in the assay on MDA-MB-435, more than 50 µM. The GI50 in the assay with NCI-H460 lung was more than 50 µM; with OVCAR-4 ovarian, more than 50 µM; in the assay on SR leukemia, 17.6 µM; with UACC-257 melanoma, more than 50 µM. Moreover, the TGI was 27.4 µM in the assay with 786-0 renal; more than 50 µM in the assay on A549 NSCLC; more than 50 µM with HOP-92 NSCLC; more than 50 µM with K-562 leukemia; 21.9 µM in the assay with M14 melanoma; more than 50 µM in the assay with MDA-MB-435. For the same compound, the TGI in the assay with NCI-H460 lung, with OVCAR-4 ovarian, with SR leukemia and in the assay on UACC-257 melanoma was more than 50 µM each time.

In the case of `COc1cccc(C2c3cc4c(cc3OC(N3CCCC3)C2C)OCO4)c1O` (centres undefined), the TGI in the assay on 786-0 renal was more than 100 µM; with A549 NSCLC it was more than 67.1 µM; with HOP-92 NSCLC, 41.5 µM; in the assay on K-562 leukemia it was 57.8 µM; in the assay on M14 melanoma, 12.6 µM; with MDA-MB-435, 4.61 µM. The TGI in the assay on NCI-H460 lung is 32.4 µM; in the assay with OVCAR-4 ovarian, more than 94.2 µM; in the assay on SR leukemia, 25 µM; with UACC-257 melanoma, 40.3 µM.
